According to the NIST ThermoML archive (doi:10.1016/j.fluid.2015.03.038):
Several values for one entry are separate records, joined by “and”; a condition that tells them apart may be missing. Equal values may be shown once.

Settings: Liquid

OCC(O)CO [glycerol]
Settings | vapor or sublimation pressure
370.3 K, transpiration (had to override TRC unc) | 0.0208 kPa
372.27 K, static (had to override TRC unc) | 0.024 kPa
372.29 K, static (had to override TRC unc) | 0.02415 kPa
374.7 K, static (had to override TRC unc) | 0.0286 kPa
374.73 K, static (had to override TRC unc) | 0.0286 kPa
377.08 K, static (had to override TRC unc) | 0.03379 kPa
377.11 K, static (had to override TRC unc) | 0.03408 kPa
377.77 K, static (had to override TRC unc) | 0.03569 kPa
380.17 K, static (had to override TRC unc) | 0.04186 kPa
380.19 K, static (had to override TRC unc) | 0.04192 kPa
382.55 K, static (had to override TRC unc) | 0.04942 kPa
382.59 K, static (had to override TRC unc) | 0.04972 kPa and 0.0496 kPa
384.99 K, static (had to override TRC unc) | 0.0582 kPa
385.01 K, static (had to override TRC unc) | 0.05821 kPa
387.37 K, static (had to override TRC unc) | 0.06807 kPa
387.39 K, static (had to override TRC unc) | 0.06861 kPa
389.8 K, static (had to override TRC unc) | 0.07986 kPa
389.83 K, static (had to override TRC unc) | 0.07998 kPa
392.18 K, static (had to override TRC unc) | 0.09311 kPa
392.2 K, static (had to override TRC unc) | 0.09367 kPa
394.61 K, static (had to override TRC unc) | 0.1087 kPa
394.64 K, static (had to override TRC unc) | 0.1087 kPa
397 K, static (had to override TRC unc) | 0.1258 kPa
397.02 K, static (had to override TRC unc) | 0.1266 kPa
399.42 K, static (had to override TRC unc) | 0.1462 kPa
399.45 K, static (had to override TRC unc) | 0.1464 kPa
401.81 K, static (had to override TRC unc) | 0.1688 kPa and 0.1687 kPa
401.83 K, static (had to override TRC unc) | 0.1694 kPa
404.23 K, static (had to override TRC unc) | 0.1952 kPa
404.26 K, static (had to override TRC unc) | 0.1952 kPa
406.62 K, static (had to override TRC unc) | 0.2242 kPa and 0.224 kPa
406.64 K, static (had to override TRC unc) | 0.2251 kPa
409.68 K, static (had to override TRC unc) | 0.2687 kPa
409.69 K, static (had to override TRC unc) | 0.269 kPa
412.08 K, static (had to override TRC unc) | 0.308 kPa
412.11 K, static (had to override TRC unc) | 0.3089 kPa
414.48 K, static (had to override TRC unc) | 0.3526 kPa
414.49 K, static (had to override TRC unc) | 0.3526 kPa
416.89 K, static (had to override TRC unc) | 0.4023 kPa
416.92 K, static (had to override TRC unc) | 0.4033 kPa
419.3 K, static (had to override TRC unc) | 0.4585 kPa and 0.4583 kPa
421.7 K, static (had to override TRC unc) | 0.521 kPa
421.73 K, static (had to override TRC unc) | 0.5224 kPa
424.1 K, static (had to override TRC unc) | 0.5919 kPa
424.11 K, static (had to override TRC unc) | 0.5923 kPa
426.5 K, static (had to override TRC unc) | 0.6698 kPa
426.53 K, static (had to override TRC unc) | 0.6725 kPa
428.91 K, static (had to override TRC unc) | 0.7586 kPa and 0.7584 kPa
431.31 K, static (had to override TRC unc) | 0.8565 kPa
431.34 K, static (had to override TRC unc) | 0.8583 kPa
433.72 K, static (had to override TRC unc) | 0.9653 kPa
433.73 K, static (had to override TRC unc) | 0.9671 kPa
436.11 K, static (had to override TRC unc) | 1.086 kPa
436.13 K, static (had to override TRC unc) | 1.087 kPa
